Data as given in US11571441B2, “Sideroflexins as mitochondrial serine transporters” (Whitehead Institute for Biomedical Research, priority 2018, dated 2023).
“Also recorded” adds a separate entry of the source. Where two headings read alike, the source gives them in different places.

T1: SFXN1 (Homo sapiens, UniProt Q9H9B4)
T1 construct: made in house
T1 sequence (Q9H9B4 1-322): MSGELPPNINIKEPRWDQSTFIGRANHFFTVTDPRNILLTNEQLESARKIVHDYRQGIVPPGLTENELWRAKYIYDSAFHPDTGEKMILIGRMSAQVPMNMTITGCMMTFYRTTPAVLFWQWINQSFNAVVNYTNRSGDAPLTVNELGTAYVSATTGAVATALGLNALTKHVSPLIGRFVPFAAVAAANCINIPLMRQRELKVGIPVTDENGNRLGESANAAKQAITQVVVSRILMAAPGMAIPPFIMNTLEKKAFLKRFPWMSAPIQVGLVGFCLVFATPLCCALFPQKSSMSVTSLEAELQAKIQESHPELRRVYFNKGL


Assays:
SFXN1 [1] = target: T1, SFXN1; test: In vitro transport assay: [3H] serine/alanine uptake into SFXN1 proteoliposomes; type: biochemical; settings: for competition of serine uptake by different metabolites (FIG. 3B) / competition of serine uptake by different metabolites (FIG. 3C): after 60 min, SFXN1 liposomes; for competition of serine uptake by different metabolites (FIG. 3C): metabolites at 500 μM; for Km: steady-state kinetic analysis, proteoliposomes
Method: (§1) In vitro transport assays were performed as described previously with the following specifications. Flag-SFXN1 was purified from 293T cells stably expressing the protein using FLAG-affinity purification and eluted off beads with FLAG peptide.
(§2) 1% Phosphatidylcholine was added to total E. coli lipids in chloroform, evaporated under nitrogen and desiccated overnight. Dried lipids were hydrated in inside buffer (20 mM MES pH 7, 50 mM NaCl, 20 mM KCl) by freeze-thawing in liquid nitrogen 20× times. Lipids were extruded 6× though a 0.4 μm filter and 15× through a 0.1 μm filter. 15 ug of purified SFXN1 protein were reconstituted into 1.2 mg liposomes using a detergent:lipid ratio of 5:1 with the addition of 1 mM DTT in inside buffer rotating at 4 degree for 1 hour. The proteoliposomes were incubated for 3 sequential rounds with Bio-beads to remove detergent. A liposome-only control was prepared by replacing the protein with inside buffer in the reconstitution reaction. Incorporation of protein into liposomes was assessed using glycerol gradient centrifugation. A buffer containing 20 mM Tris-HCL pH 7.4 and 100 mM NaCl was used as outside buffer in transport reactions.
In vitro transport assays were performed as described previously (43, 44) with the following specifications. FLAG-SFXN1 was purified from HEK-293T cells stably expressing the protein using FLAG-affinity purification and eluted off the beads with the FLAG peptide.
1% Phosphatidylcholine was added to total E. coli lipids in chloroform, evaporated under nitrogen and desiccated overnight. Dried lipids were hydrated in inside buffer (20 mM MES pH 7, 50 mM NaCl, 20 mM KCl) by freeze-thawing in liquid nitrogen 20× times. Lipids were extruded 6× through a 0.4 μm filter and 15× through a 0.1 μm filter. 15 μg of purified SFXN1 protein were reconstituted into 1.2 mg liposomes using a detergent:lipid ratio of 5:1 with the addition of 1 mM DTT in inside buffer rotating at 4° C. for 1 hour. The proteoliposomes were incubated for 3 sequential rounds with Bio-Beads to remove detergent. A liposome-only control was prepared by replacing the protein with inside buffer in the reconstitution reaction. Incorporation of protein into liposomes was assessed using a glycerol gradient centrifugation assay. [3H] […] Different lots of total E. coli lipid extracts were tested and ones that optimally preserved SFXN1 activity were used in experiments.

[2] = test system: SFXN1-null cells (Jurkat and K562); test: Cell proliferation assay (Cell titer glo) in serine-deficient media, formate rescue; type: cell-based, human; settings: 1 mM formate added, 4 days
Method: (§3) 10,000 cells per well were seeded into 96 well plates in triplicate. Cell titer glo reagent (Promega) was added to one plate immediately after seeding and luminescence was measured, while a second plate was read-out 4 days after seeding. Number of doublings in 4 days was determined by calculating the log2 fold-change in signal between day 0 and 4. For formate rescue experiments, 1 mM formate was added to cells at time of seeding (Jurkat cells) or cells were cultured in formate-containing media for 1 week prior to the experiment (K562 cells) unless indicated otherwise.
(§4) 10,000 cells per well were seeded into 96-well plates in triplicate. Cell titer glo reagent (Promega) was added to one plate immediately after seeding and luminescence was measured, while a second plate was read-out 4 days after seeding. Number of doublings in 4 days was determined by calculating the log2 fold-change in signal between day 0 and 4. For formate rescue experiments, 1 mM formate was added to media at the time of seeding (Jurkat cells) or cells were cultured in formate-containing media for 1 week prior to the experiment (K562 cells) unless indicated otherwise.

[3] = test system: SFXN1/3-null Jurkat cells; test: Cell proliferation assay in glycine-deficient media, formate rescue; type: cell-based, human; settings: 1 mM formate, cells cultured with it 2 days before the experiment
Method: as §3, §4

SFXN1-null Jurkat cells = test: LC-MS metabolite quantification (purine synthesis intermediates, serine, glycine) in SFXN1-null cells; type: cell-based, human; settings: 1 mM formate, 24 hours in indicated media
Method: Quantification of metabolite abundance using LC/MS-based metabolomics was performed and analyzed as previously described. Briefly, Jurkat or K562 cells were seeded at densities of 0.6×10^6 per ml and 0.33×10^6 per ml, respectively. 24 h later, 2×10^6 Jurkat or 1×10^6 K562 cells were harvested, washed once in ice-cold 0.9% saline prepared with LC-MS grade H2O, and extracted with 80% methanol containing 500 nM isotope-labeled amino acids as internal standards (Cambridge Isotope Laboratories). The samples were vortexed for 10 min at 4° C. and spun down at 17,000×g. The supernatant was dried by vacuum centrifugation at 4° C. Samples were stored at −80° C. until analyzed. On the day of analysis, samples were resuspended in 50-100 μL of LC/MS grade water and the insoluble fraction was cleared by centrifugation at 15,000 rpm. The supernatant was then analyzed as previously described by LC/MS (21, 33). […]
Metabolite abundance using LC/MS-based metabolomics was measured and quantified as previously described (15). […] Samples were stored at −80° C. until analyzed. […] The supernatant was then analyzed as previously described by LC-MS (15, 38) Amino acids were normalized to their respective internal standards, purine synthesis intermediates were normalized to the glutamate internal standard. […]

SFXN1 [4] = test: Amino acid uptake into mitochondria isolated from wild-type or SFXN1-null Jurkat cells; type: biochemical, human; settings: 0.75 μM [3H] serine or 3 μM [3H] glutamate, 30° C.
Method: Mitochondria from wild-type or SFXN1-null Jurkat cells were prepared according to (45). Briefly, cells (˜1 g starting material) were resuspended in low tonicity buffer (100 mM sucrose, 10 mM MOPS pH 7.2, 1 mM EGTA, 0.1% BSA) and disrupted with 20 strokes in a homogenizer containing a pure PTFE head (VWR International) and two strokes with a dounce tissue grinder with tight-fitting pestle (DWK Life Sciences Kimbl Kontes). After adjusting tonicity, lysates were spun twice at 950×g to remove unbroken cells and nuclei, and mitochondria were pelleted by centrifuging at 10,000×g for 10 min. […] Mitochondrial preparations were adjusted for protein content. […] 50 μl samples were collected immediately after start of the reaction and at 1, 2, 3 mins and added to mixed cellulose-ester filters (Fisher Scientific, 0.22 μm pore size) connected to a vacuum line (adapted from (47)). Filters were washed with 3 mL of ice cold TBS and the radioactivity remaining on the filters was measured using a scintillation counter. Blank reaction samples, in which mitochondria were replaced with incubation media, were used to subtract the background. The uptake rate was calculated from the first two minutes of the reaction.

[5] = substrate: N[C@@H](CO)C(=O)O; test: purified protein, by the assay type; type: biochemical, human; settings: other: steady-state kinetic analysis; proteoliposomes; [3H] serine 1 μM with increasing unlabeled serine
Method: as §1
as §2, with “reactions. […]” for “reactions.”
1% Phosphatidylcholine was added to total E. coli lipids in chloroform, evaporated under nitrogen and desiccated overnight. […] Incorporation of protein into liposomes was assessed using a glycerol gradient centrifugation assay. […]

[6] = substrate: C[C@H](N)C(=O)O; test: purified protein, by the assay type; settings: other: steady-state kinetic analysis; proteoliposomes

| Molecule | competition of serine uptake by different metabolites (FIG. 3B) (SFXN1 [1]) | competition of serine uptake by different metabolites (FIG. 3C) (SFXN1 [1]) | further results |
| --- | --- | --- | --- |
| N[C@H](CO)C(=O)O [D-serine] | able to complete serine uptake | competed with the transport of the labelled serine |  |
| N[C@@H](CO)C(=O)O [L-serine] | able to complete serine uptake | competed with the transport of the labelled serine |  |
| C[C@H](N)C(=O)O [alanine] | able to complete serine uptake | competed with the transport of the labelled serine; also recorded: partially competed with serine | Km (SFXN1 [1]; read-out: Km of SFXN1-mediated alanine transport): ~371 µM |
| O=C(O)CC(O)(CC(=O)O)C(=O)O [citrate] |  | Neither formate nor citrate competed with serine transport; also recorded: does not compete with serine |  |
| N[C@@H](CS)C(=O)O [cysteine] |  | competed with the transport of the labelled serine; also recorded: partially competed with serine |  |
| O=CO [formate] | not able to complete serine uptake | Neither formate nor citrate competed with serine transport | rescue of proliferation of SFXN1-null cells in serine-deficient media [2]: completely restored growth of SFXN1-null cells; also recorded: completely reversed the slow proliferation; also recorded: rescues growth; rescue of proliferation of SFXN1/3-null cells in the absence of glycine [3]: unable to rescue the growth defect; also recorded: did not reverse their proliferation defect; also recorded: does not rescue proliferation; accumulation of purine synthesis intermediates (GAR, SAICAR, AICAR) in SFXN1-null cells (SFXN1-null Jurkat cells): completely abolish their accumulation; also recorded: abolished the accumulation of the intermediates; also recorded: reverses the accumulation of purine synthesis intermediates; glycine levels and serine/glycine ratio of SFXN1-null cells (SFXN1-null Jurkat cells): without rescuing the cellular serine and glycine levels; also recorded: did not rescue the defects in glycine levels; also recorded: does not rescue glycine levels and serine/glycine ratio |
| N[C@@H](CCC(=O)O)C(=O)O [glutamate] |  |  | radioactive amino acid uptake into mitochondria from SFXN1-null cells compared to wild-type (SFXN1 [4]): unaffected; also recorded: unchanged |
| NCC(=O)O [glycine] |  | competed with the transport of the labelled serine; also recorded: partially competed with serine |  |
| N[C@@H](CO)C(=O)O [serine] |  |  | radioactive amino acid uptake into mitochondria from SFXN1-null cells compared to wild-type (SFXN1 [4]): reduced; Km (SFXN1 [1]; [3H] serine 1 μM with increasing unlabeled serine, read-out: Km of SFXN1-mediated serine transport): 170 µM |
| SFXN1 (Homo sapiens) (protein, made in house) MSGELPPNINIKEPRWDQSTFIGRANHFFTVTDPRNILLTNEQLESARKIVHDYRQGIVPPGLTENELWRAKYIYDSAFHPDTGEKMILIGRMSAQVPMNMTITGCMMTFYRTTPAVLFWQWINQSFNAVVNYTNRSGDAPLTVNELGTAYVSATTGAVATALGLNALTKHVSPLIGRFVPFAAVAAANCINIPLMRQRELKVGIPVTDENGNRLGESANAAKQAITQVVVSRILMAAPGMAIPPFIMNTLEKKAFLKRFPWMSAPIQVGLVGFCLVFATPLCCALFPQKSSMSVTSLEAELQAKIQESHPELRRVYFNKGL |  |  | Km [5]: 170 µM; Vmax [5]: 8.2 pmol/min; Km [6]: 371 µM |
